Measured values published in article PMC6856409 (Journal of medicinal chemistry, 2019).

How the values were obtained:
NLRP3 inflammasome = assay: IL-1β release from mouse peritoneal macrophages upon LPS/ATP challenge; type: cell-based
NLRC4 inflammasome = NLRC4 inflammasome selectivity assay, J774A.1 cells, LPS/flagellin, IL-1β ELISA; type: cell-based, murine; conditions: 10 μM compound, LPS (1 μg/mL) 1 h, flagellin (1 μg/mL) 6 h
AIM2 inflammasome = AIM2 inflammasome selectivity assay, J774A.1 cells, LPS/poly; type: cell-based, murine; conditions: 10 μM compound, LPS (1 μg/mL) 1 h, poly(dA:dT) (4 μg/ml) 8 h
hCMEC/D3 cells = assay: Cytotoxicity on hCMEC/D3 cells; conditions: 20 μM, 2 h

Compound	inhibitory activity on IL-1β release (NLRP3 inflammasome)	effect on IL-1β production by NLRC4 inflammasome (NLRC4 inflammasome)	effect on IL-1β production by AIM2 inflammasome (AIM2 inflammasome)	cytotoxicity (cell viability) (hCMEC/D3 cells)
C#CCNS(=O)(=O)c1ccc(CCN(Cc2cc(Cl)ccc2OC)C(=O)C=C)cc1 [Compound 2, N-(5-chloro-2-methoxybenzyl)-N-(4-(N-(prop-2-yn-1-yl)sulfamoyl)phenethyl)acryl-amide]	confirmed	significantly inhibited	significantly inhibited	–
C#CCNS(=O)(=O)c1ccc(CCN(Cc2cc(Cl)ccc2OCCC)C(=O)Cc2ccsc2)cc1 [Compound 17, N-(5-chloro-2-propoxybenzyl)-N-(4-(N-(prop-2-yn-1-yl)sulfamoyl)phenethyl)-2-(thio-phen-3-yl)acetamide]	–	did not significantly interfere	did not significantly interfere	did not show significant toxic effects
